# In paper PMC6978363, “Chaperone mediated detection of small molecule target binding in cells” (Nature Communications, 2020):
# What was measured:
# Experiment in all cases: biochemical
# Conditions in all cases: read-out: % Inhibition (at 10mM)
# DYRK1A = DYRK1A (Homo sapiens, UniProt Q13627)
# Flt3 = Flt3 (Homo sapiens, UniProt P36888)
# Fer = Fer (Homo sapiens, UniProt P16591)
# DCAMKL1 = molecular target: T1, DCAMKL1 (Homo sapiens, UniProt O15075)
# T1 construct: gene DCLK1
# PKC_zeta = molecular target: T2, PKC_zeta (Homo sapiens, UniProt Q05513)
# T2 construct: gene PRKCZ
# Aurora_B = molecular target: T3, Aurora_B (Homo sapiens, UniProt Q96GD4)
# T3 construct: gene AURKB
# PEAK1 = PEAK1 (Homo sapiens, UniProt Q9H792)
# PCTK2 = molecular target: T4, PCTK2 (Homo sapiens, UniProt Q00537)
# T4 construct: gene CDK17
# RSK3 = molecular target: T5, RSK3 (Homo sapiens, UniProt Q15349)
# T5 construct: gene RPS6KA2
# BTK = BTK (Homo sapiens, UniProt Q06187)
# SRPK2 = SRPK2 (Homo sapiens, UniProt P78362)
# CaMKI_delta = molecular target: T6, CaMKI_delta (Homo sapiens, UniProt Q8IU85)
# T6 construct: gene CAMK1D
# CamKIV = molecular target: T7, CamKIV (Homo sapiens, UniProt Q16566)
# T7 construct: gene CAMK4
# TrkB = molecular target: T8, TrkB (Homo sapiens, UniProt Q16620)
# T8 construct: gene NTRK2
# GSK3_alpha = molecular target: T9, GSK3_alpha (Homo sapiens, UniProt P49840)
# T9 construct: gene GSK3A
# DNA-PK = molecular target: T10, DNA-PK (Homo sapiens, UniProt P78527)
# T10 construct: gene PRKDC
# EphA5 = EphA5 (Homo sapiens, UniProt P54756)
# GRK6 = GRK6 (Homo sapiens, UniProt P43250)
# MKNK1 = MKNK1 (Homo sapiens, UniProt Q9BUB5)
# Flt1 = Flt1 (Homo sapiens, UniProt P17948)
# NEK9 = NEK9 (Homo sapiens, UniProt Q8TD19)
# Bmx = Bmx (Homo sapiens, UniProt P51813)
# PKG2 = molecular target: T11, PKG2 (Homo sapiens, UniProt Q13237)
# T11 construct: gene PRKG2
# NEK6 = NEK6 (Homo sapiens, UniProt Q9HC98)
# MST1 = molecular target: T12, MST1 (Homo sapiens, UniProt Q13043)
# T12 construct: gene STK4
# FGFR4 = FGFR4 (Homo sapiens, UniProt P22455)
# FAK2 = molecular target: T13, FAK2 (Homo sapiens, UniProt Q14289)
# T13 construct: gene PTK2B
# GSK3_beta = molecular target: T14, GSK3_beta (Homo sapiens, UniProt P49841)
# T14 construct: gene GSK3B
# CLK2 = CLK2 (Homo sapiens, UniProt P49760)
# CK1_delta = molecular target: T15, CK1_delta (Homo sapiens, UniProt P48730)
# T15 construct: gene CSNK1D
# Src = Src (Homo sapiens, UniProt P12931)
# CDKL5 = CDKL5 (Homo sapiens, UniProt O76039)
# MSSK1 = molecular target: T16, MSSK1 (Homo sapiens, UniProt Q9UPE1)
# T16 construct: gene SRPK3
# IKK_beta = molecular target: T17, IKK_beta (Homo sapiens, UniProt O14920)
# T17 construct: gene IKBKB
# SBK1 = SBK1 (Homo sapiens, UniProt Q52WX2)
# Brk = molecular target: T18, Brk (Homo sapiens, UniProt Q13882)
# T18 construct: gene PTK6
# PKC_iota = molecular target: T19, PKC_iota (Homo sapiens, UniProt P41743)
# T19 construct: gene PRKCI
# DCAMKL2 = molecular target: T20, DCAMKL2 (Homo sapiens, UniProt Q8N568)
# T20 construct: gene DCLK2
# T20 sequence (Q8N568 whole entry): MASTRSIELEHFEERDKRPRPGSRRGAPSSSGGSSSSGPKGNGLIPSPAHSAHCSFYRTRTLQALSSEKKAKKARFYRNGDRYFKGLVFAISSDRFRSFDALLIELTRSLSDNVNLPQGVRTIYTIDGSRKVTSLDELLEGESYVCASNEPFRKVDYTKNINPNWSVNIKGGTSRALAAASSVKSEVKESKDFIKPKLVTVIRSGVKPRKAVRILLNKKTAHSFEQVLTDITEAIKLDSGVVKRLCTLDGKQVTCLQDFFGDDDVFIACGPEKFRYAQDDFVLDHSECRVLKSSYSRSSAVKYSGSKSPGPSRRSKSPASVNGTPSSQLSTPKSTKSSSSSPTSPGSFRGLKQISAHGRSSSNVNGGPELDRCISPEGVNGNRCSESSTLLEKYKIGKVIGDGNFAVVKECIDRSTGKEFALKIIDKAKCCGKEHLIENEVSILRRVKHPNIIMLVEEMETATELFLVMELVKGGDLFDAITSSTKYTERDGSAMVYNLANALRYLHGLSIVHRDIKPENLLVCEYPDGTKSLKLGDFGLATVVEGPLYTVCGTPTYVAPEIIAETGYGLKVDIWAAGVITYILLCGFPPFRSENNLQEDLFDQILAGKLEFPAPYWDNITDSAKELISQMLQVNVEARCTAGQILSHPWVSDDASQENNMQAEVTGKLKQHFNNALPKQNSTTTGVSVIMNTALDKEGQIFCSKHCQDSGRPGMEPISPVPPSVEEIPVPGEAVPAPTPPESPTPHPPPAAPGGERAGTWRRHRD
# Sequence of EphA5 (P54756 whole entry): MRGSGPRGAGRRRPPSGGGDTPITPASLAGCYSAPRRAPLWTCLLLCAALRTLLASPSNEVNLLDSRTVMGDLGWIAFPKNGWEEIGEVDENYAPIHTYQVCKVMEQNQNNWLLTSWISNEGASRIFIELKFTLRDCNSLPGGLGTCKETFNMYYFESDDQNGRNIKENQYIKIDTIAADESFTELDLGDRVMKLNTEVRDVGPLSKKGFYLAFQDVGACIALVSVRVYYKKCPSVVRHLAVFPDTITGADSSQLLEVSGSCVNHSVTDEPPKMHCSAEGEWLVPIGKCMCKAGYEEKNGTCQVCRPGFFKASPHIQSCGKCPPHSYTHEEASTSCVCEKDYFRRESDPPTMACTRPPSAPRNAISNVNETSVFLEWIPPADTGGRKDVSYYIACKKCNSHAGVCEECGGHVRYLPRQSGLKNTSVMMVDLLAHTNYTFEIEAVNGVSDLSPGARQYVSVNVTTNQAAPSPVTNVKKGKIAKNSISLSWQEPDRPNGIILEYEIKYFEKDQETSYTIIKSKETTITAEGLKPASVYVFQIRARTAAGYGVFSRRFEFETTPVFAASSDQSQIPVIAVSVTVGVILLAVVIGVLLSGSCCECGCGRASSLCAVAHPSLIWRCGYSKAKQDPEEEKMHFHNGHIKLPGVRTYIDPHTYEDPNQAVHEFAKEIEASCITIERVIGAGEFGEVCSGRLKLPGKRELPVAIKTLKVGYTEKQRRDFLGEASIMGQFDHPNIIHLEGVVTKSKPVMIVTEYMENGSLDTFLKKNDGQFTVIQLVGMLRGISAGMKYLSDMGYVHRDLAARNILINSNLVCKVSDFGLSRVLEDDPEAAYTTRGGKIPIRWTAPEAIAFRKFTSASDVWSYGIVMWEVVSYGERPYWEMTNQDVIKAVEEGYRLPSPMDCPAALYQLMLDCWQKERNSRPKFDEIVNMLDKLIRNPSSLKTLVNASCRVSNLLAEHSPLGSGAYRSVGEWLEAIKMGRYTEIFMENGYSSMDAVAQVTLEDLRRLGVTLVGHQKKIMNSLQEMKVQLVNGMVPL
# T6 sequence (Q8IU85 whole entry): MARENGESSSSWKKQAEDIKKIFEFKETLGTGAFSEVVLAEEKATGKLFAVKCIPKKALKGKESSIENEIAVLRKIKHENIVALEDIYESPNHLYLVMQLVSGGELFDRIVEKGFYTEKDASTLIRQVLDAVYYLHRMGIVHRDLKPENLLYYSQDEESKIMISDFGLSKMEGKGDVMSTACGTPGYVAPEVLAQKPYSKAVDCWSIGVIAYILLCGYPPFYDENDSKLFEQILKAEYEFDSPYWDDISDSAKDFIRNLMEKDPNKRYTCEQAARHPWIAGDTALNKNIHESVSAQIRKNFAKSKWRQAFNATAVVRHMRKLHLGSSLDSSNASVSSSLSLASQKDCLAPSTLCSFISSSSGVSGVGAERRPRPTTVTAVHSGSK
# T11 sequence (Q13237 whole entry): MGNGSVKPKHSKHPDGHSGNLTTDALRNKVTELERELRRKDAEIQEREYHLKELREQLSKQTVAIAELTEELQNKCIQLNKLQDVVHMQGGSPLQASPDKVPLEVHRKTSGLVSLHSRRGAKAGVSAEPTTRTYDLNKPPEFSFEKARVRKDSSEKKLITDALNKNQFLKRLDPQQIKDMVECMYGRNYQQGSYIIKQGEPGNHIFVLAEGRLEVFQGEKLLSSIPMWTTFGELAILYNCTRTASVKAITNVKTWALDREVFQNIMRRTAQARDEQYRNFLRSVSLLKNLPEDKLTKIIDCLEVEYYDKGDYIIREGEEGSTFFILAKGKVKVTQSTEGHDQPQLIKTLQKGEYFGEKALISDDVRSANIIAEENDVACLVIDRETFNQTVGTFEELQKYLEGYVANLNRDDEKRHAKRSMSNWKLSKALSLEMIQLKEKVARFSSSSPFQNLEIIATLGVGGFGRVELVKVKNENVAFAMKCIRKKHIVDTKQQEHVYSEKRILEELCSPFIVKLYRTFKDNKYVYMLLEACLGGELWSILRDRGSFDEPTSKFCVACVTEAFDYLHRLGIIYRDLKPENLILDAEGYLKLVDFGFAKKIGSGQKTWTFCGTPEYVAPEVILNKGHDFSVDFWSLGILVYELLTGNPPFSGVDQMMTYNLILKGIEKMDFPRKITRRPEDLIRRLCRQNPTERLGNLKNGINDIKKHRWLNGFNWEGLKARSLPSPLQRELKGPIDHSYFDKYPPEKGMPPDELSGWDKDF
# Sequence of Fer (P16591 whole entry): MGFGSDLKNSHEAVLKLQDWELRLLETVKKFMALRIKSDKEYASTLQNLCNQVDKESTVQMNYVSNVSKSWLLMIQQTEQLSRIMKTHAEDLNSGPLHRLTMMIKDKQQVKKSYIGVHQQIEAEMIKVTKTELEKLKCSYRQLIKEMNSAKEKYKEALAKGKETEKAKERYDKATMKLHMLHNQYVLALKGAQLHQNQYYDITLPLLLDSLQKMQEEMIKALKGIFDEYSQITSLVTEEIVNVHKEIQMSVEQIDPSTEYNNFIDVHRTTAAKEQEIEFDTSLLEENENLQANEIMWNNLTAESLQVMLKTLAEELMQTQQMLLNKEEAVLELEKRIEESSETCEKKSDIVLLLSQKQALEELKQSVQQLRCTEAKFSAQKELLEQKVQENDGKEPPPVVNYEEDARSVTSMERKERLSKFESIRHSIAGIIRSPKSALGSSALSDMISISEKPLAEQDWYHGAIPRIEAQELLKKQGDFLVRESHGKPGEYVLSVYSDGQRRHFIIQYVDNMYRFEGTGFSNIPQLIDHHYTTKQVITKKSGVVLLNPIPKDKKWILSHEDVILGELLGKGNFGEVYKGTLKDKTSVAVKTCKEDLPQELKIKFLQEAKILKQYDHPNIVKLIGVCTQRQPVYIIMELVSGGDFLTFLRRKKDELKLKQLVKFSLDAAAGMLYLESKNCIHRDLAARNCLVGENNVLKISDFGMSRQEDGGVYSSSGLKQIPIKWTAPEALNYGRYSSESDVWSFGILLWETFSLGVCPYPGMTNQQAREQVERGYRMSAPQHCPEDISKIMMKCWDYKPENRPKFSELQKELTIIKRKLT
# T18 sequence (Q13882 whole entry): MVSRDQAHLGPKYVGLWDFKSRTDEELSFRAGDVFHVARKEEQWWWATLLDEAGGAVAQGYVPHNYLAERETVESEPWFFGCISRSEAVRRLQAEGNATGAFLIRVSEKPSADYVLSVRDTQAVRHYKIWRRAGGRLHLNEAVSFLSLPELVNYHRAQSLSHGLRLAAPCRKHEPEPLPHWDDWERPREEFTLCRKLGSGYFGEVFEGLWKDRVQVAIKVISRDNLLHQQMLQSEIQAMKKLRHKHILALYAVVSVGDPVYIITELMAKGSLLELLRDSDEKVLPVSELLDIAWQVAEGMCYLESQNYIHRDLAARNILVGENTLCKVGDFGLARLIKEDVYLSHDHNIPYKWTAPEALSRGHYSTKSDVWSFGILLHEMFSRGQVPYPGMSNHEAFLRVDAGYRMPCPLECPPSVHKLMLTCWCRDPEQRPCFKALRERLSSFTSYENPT
# T19 sequence (P41743 whole entry): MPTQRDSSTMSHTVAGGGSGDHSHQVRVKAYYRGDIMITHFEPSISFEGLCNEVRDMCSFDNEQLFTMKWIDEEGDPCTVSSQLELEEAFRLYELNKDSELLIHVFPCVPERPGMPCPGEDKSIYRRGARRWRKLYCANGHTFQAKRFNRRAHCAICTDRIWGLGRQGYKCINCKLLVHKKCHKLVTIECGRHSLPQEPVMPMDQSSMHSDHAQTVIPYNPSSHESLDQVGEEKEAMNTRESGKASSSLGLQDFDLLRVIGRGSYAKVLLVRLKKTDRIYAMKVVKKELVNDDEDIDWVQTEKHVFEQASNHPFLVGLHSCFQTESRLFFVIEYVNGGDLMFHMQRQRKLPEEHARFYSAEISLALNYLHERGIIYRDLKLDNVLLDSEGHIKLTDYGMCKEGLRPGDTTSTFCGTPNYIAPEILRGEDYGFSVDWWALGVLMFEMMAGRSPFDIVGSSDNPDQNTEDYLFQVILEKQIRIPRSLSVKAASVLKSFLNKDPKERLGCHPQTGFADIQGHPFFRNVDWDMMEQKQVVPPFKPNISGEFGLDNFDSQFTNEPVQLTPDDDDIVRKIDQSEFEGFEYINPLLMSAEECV
compound,measurement,setting,value
CC(C)(O)CC(=O)NCCn1ccc2ncnc(Nc3ccc(Oc4cccc(C(F)(F)F)c4)c(Cl)c3)c21 [TAK-285],inhibition,DYRK1A,9.5%
same,inhibition,Flt3,27%
same,inhibition,Fer,12.5%
same,inhibition,DCAMKL1,-2.5%
same,inhibition,PKC_zeta,8.5%
same,inhibition,Aurora_B,68%
same,inhibition,PEAK1,11%
same,inhibition,PCTK2,0.5%
same,inhibition,RSK3,2.5%
same,inhibition,BTK,36%
same,inhibition,SRPK2,2.5%
same,inhibition,CaMKI_delta,0%
same,inhibition,CamKIV,6.5%
same,inhibition,TrkB,4.5%
same,inhibition,GSK3_alpha,10%
same,inhibition,DNA-PK,11.5%
same,inhibition,EphA5,2%
same,inhibition,GRK6,-1.5%
same,inhibition,MKNK1,6%
same,inhibition,Flt1,-1.5%
same,inhibition,NEK9,0%
same,inhibition,Bmx,13.5%
same,inhibition,PKG2,-11%
same,inhibition,NEK6,6%
same,inhibition,MST1,2%
same,inhibition,FGFR4,6%
same,inhibition,FAK2,4%
same,inhibition,GSK3_beta,9%
same,inhibition,CLK2,18.5%
same,inhibition,CK1_delta,-1.5%
same,inhibition,Src,37.5%
same,inhibition,CDKL5,8.5%
same,inhibition,MSSK1,5%
same,inhibition,IKK_beta,-0.5%
same,inhibition,SBK1,8.5%
same,inhibition,Brk,65%
same,inhibition,PKC_iota,8%
same,inhibition,DCAMKL2,-9.5%
